Measurements as given in patent publication US5739359A, “Methods for preparing 1-deoxy paclitaxels” (Virginia Tech Intellectual Properties, Inc., priority 1997, dated 1998).

Key:
[1] = system: paclitaxel-resistant cell line HCT116/VM46; test: cells; assay type: cell-based; settings: Homo sapiens, HCT-116/VM46, 72 h, read-out: Cytotoxicity Assay IC50
Description: Cytotoxicity was assessed in HCT-116 and line HCT116/VM46 human colon carcinoma cells by MTS (3-(4,5-dimethylthiazol-2-yl)-5-(3-carboxymethoxyphenyl)-2-(4-sulphenyl)-2H-tetrazolium, inner salt) assay as reported in T. L. Riss, el. al., "Comparison of MTT, XTT, and a novel tetrazolium compound MTS for in vitro proliferation and chemosensitivity assays.," Mol. Biol. Cell 3 (Suppl.):184a, 1992. Cells were plated at 4,000 cell/well in 96 well microliter plates and 24 hours later drugs were added and serial diluted. The cells were incubated at 37° for 72 hours at which time the tetrazolium dye, MTS at 333 μg/ml (final concentration), in combination with the electron coupling agent phenazine methosulfate at 25 μM (final concentration) was added. A dehydrogenase enzyme in live cells reduces the MTS to a form that absorbs light at […] which can be quantitated spectrophotometrically. The greater the absorbance the greater the number of live cells. The results are expressed as an IC50, which is the drug concentration required to inhibit cell proliferation (i.e. absorbance at 450 nm) to 50% of that of untreated control cells. The IC50 values for compounds evaluated in this assay are evaluated in Table I.

[2] = in vivo animal models; cited from earlier work
[3] = system: human colon carcinoma cells HCT-116; test: MTS in vitro cytotoxicity assay, HCT-116; assay type: cell-based; settings: 72 h exposure
Description: Cells were plated at 4,000 cell/well in 96 well microliter plates and 24 hours later drugs were added and serial diluted. […] The greater the absorbance the greater the number of live cells.

Which IC50 [1] does the source give for `CC(=O)O[C@@H]1C2=C(C)[C@@H](OC(=O)[C@H](O)[C@@H](NC(=O)OC(C)(C)C)c3ccccc3)C[C@@H]([C@@H](OC(=O)c3ccccc3)[C@@H]3[C@]4(OC(C)=O)CO[C@@H]4C[C@H](OC(C)=O)[C@@]3(C)[C@H]1OC(C)=O)C2(C)C` [Compound 7c, 7,9,10-triacetyl-1-deoxy-9(R)-dihydrodocetaxel] here?
The IC50 was 0.0218 nM.

Which IC50 [1] does the source give for `CC(=O)O[C@H]1C(=O)[C@@]2(C)[C@H]([C@H](OC(=O)c3ccccc3)[C@]3(O)C[C@H](OC(=O)[C@H](O)[C@@H](NC(=O)c4ccccc4)c4ccccc4)C(C)=C1C3(C)C)[C@]1(OC(C)=O)CO[C@@H]1C[C@@H]2O` [paclitaxel] here?
Its IC50 is 0.225 nM.

What about the “antitumor activity (in words)” value [2] of the same molecule?
Its value is “excellent antitumor activity”.

Which IC50 [1] does the source give for `CC(=O)O[C@@]12CO[C@@H]1C[C@@H]1OC(C)(C)O[C@H]3[C@H](O)C4=C(C)[C@@H](OC(=O)[C@H](O)[C@@H](NC(=O)c5ccccc5)c5ccccc5)C[C@@H]([C@@H](OC(=O)c5ccccc5)[C@H]2[C@@]13C)C4(C)C` [Compound 7a, 10-Deacetyl-1-deoxy-9(R)-dihydropaclitaxel 7,9-acetonide] here?
The IC50 was 0.0115 nM.

For `CC(=O)O[C@@]12CO[C@@H]1C[C@@H]1OC(c3ccccc3)O[C@H]3[C@H](O)C4=C(C)[C@@H](OC(=O)[C@H](O)[C@@H](NC(=O)OC(C)(C)C)c5ccccc5)C[C@@H]([C@@H](OC(=O)c5ccccc5)[C@H]2[C@@]13C)C4(C)C` (stereo partly drawn) [Compound 7b, 1-deoxy-9(R)-dihydrodocetaxel 7,9-benzylidene acetal], which IC50 [3] is on record?
Its IC50 is 0.0105 nM.

And the IC50 [1]?
The IC50 was 0.0296 nM.
